Results from patent publication US8835476B2, “Synthesis of novel antimicrobials” (priority 2005, dated 2014).

What follows are compounds tested against T1, recombinant E. coli LpxA (Escherichia coli, UniProt P0A722) (assay: LpxA assay: acyl-UDP-GlcNAc formation from UDP-[3H]GlcNAc, TLC). Conditions: 5 mM compound; FIG. 8.
T1 construct: 6xHis (C); made in house; host or cells: E. coli BL21 (pET23b)
T1 sequence (P0A722 whole entry): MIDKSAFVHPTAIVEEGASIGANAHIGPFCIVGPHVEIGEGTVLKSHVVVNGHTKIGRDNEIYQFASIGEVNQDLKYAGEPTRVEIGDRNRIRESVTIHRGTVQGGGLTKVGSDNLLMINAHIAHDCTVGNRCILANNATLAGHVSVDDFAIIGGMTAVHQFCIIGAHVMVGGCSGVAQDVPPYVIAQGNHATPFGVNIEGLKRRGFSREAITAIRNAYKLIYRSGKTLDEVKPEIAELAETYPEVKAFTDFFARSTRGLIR
Format: biochemical
Text: The lpxA gene was amplified from an E. coli genomic library and inserted into a pET23b vector using standard recombinant DNA methodology. The 5′ oligonucleotide for amplification of the LpxA open reading frame was 5′-[…]-3′ (SEQ ID NO. 1) and contains a BamHI restriction enzyme site upstream of the LpxA ATG start codon and the 3′ oligonucleotide was 5′-[…]-3′ (SEQ ID NO. 2) and contains a XhoI restriction enzyme site downstream of the final codon of the LpxA open reading frame. Primers were custom synthesized. The primers were designed such that digestion of the amplification product would result in addition of a C-terminal 6×-His tag in frame with the LpxA open reading frame. Specifically, E. coli genomic DNA was isolated and an amplification reaction was carried out as follows: 33 μl water, 5 μl 10× reaction buffer, 1.5 μl of 50 mM magnesium sulfate, 3 μl of 10 mM dNTPs, 3 μl of a 50 μM solution of the 5′ LpxA primer, 3 μl of a 50 μM solution of the 3′ LpxA primer, 0.5 μl of E. coli genomic DNA solution, and 1 μl of polymerase. The reaction conditions were as follows: 94° C. for 2 minutes; followed by 30 cycles of 94° C. for 30 seconds, 50° C. for 30 seconds, 68° C. for 1.5 minutes, followed by an extension at 68° C. for 7 minutes. The resulting LpxA product was separated from other DNA on a 0.8% agarose gel and isolated from the gel. The LpxA open reading frame was cloned into a topoisomerase I-activated vector and transformed into E. coli. […] The newly synthesized plasmid containing the BamHI- and XhoI-flanked LpxA open reading frame and plasmid pET23a were digested with BamHI and XhoI at 37° C. for 2 hours, DNA was separated by agarose gel electrophoresis, isolated from the gel, and ligated. Ligation reactions were transformed into chemically competent E. coli and plasmid DNA was isolated. Restriction mapping was performed to determine which plasmids contained the LpxA open reading frame. To remove the T7 epitope coding sequence from the 5′end of the LpxA open reading frame, the pET23a plasmid containing the LpxA open reading frame was digested with the restriction enzymes BamHI and XhoI and a pET23b plasmid was digested with BglII and XhoI, DNA was separated by agarose gel electrophoresis, isolated from the gel, and ligated. Ligation reactions were transformed into chemically competent E. coli and plasmid DNA was isolated. Restriction mapping was performed to assess plasmids containing the LpxA open reading frame.
A 5 ml culture of E. Coli BL21 cells expressing the LpxA-6×His plasmid was grown overnight at 37° C. in LB medium containing 50 μg/ml ampicillin and 34 μg/ml chloramphenicol, then subcultured into 500 ml of the same medium and grown at 37° C. until A600=0.6. LpxA expression was induced by addition of 0.5 mM IPTG for three hours. The cells were centrifuged at 7 000×g for 10 minutes at 4° C. and lysed using a mild, nonionic detergent. The soluble fraction containing LpxA was added to 1 ml of nickel affinity resin in a 15 ml Falcon tube; the resin was washed extensively with extraction/wash buffer (50 mM Na-phosphate (pH 7.0) and 300 mM NaCl) prior to use. This mixture was incubated on a rotating platform at low speed for 20 minutes at room temperature. The resin was centrifuged at 1000 rpm in a bench top centrifuge for 2 min, washed twice (10 min each) with 10 ml of extraction/wash buffer, resuspended in 10 ml of extraction/wash buffer, and transferred to a 10 ml polypropylene disposable protein purification column. The column was eluted with 5 ml of 50 mM Na-phosphate (pH 7.0) containing 300 mM NaCl and 150 mM imidazole, collected in 1 ml fractions. The eluate was analysed by SDS-PAGE and was visualised using a protein stain (FIG. 7 inset).
Recombinant Vibrio harveyi acyl carrier protein was prepared from a GST fusion protein as described previously (Flaman et al., 2001). […]
O=C(O)c1cc(-c2nnn[nH]2)c(-c2cccc3ccccc23)s1 [DNM-121H, 5-(Naphthalen-1-yl)-4-(1H-tetrazol-5-yl)thiophene-2-carboxylic acid] showed an inhibition at 5000 µM greater than 70%. COc1cccc(-c2sc(C(=O)O)cc2-c2nnnn2C)c1 [DNM-122D, 5-(3-Methoxyphenyl)-4-(1-methyl-1H-tetrazol-5-yl)thiophene-2-carboxylic acid] gave an inhibition at 5000 µM greater than 70%. Cn1nnnc1-c1cc(C(=O)O)sc1-c1ccc(-c2ccccc2)cc1 [DNM-122G, 5-(4-biphenylyl)-4-(1-methyl-1H-tetrazol-5-yl)thiophene-2-carboxylic acid] gave an inhibition at 5000 µM greater than 80%. Cn1nnnc1-c1cc(C(=O)O)sc1-c1cccc2ccccc12 [DNM-122H, 5-(Naphthalen-1-yl)-4-(1-methyl-1H-tetrazol-5-yl)thiophene-2-carboxylic acid] was tested, and the inhibition at 5000 µM was greater than 80%. Cn1nnc(-c2cc(C(=O)O)sc2-c2cccc(F)c2)n1 [DNM-123A, 5-(3-Fluorophenyl)-4-(2-methyl-2H-tetrazol-5-yl)thiophene-2-carboxylic acid] was tested, and the inhibition at 5000 µM was greater than 70%. With COc1cccc(-c2sc(C(=O)O)cc2-c2nnn(C)n2)c1 [DNM-123D, 5-(3-Methoxyphenyl)-4-(2-methyl-2H-tetrazol-5-yl)thiophene-2-carboxylic acid] the inhibition at 5000 µM was greater than 80%. With COc1ccc(-c2sc(C(=O)O)cc2-c2nnn(C)n2)cc1 [DNM-123E, 5-(4-Methoxyphenyl)-4-(2-methyl-2H-tetrazol-5-yl)thiophene-2-carboxylic acid] the inhibition at 5000 µM was greater than 70%. Compound COc1ccccc1-c1sc(C(=O)O)cc1-c1nnn(C)n1 [DNM-123F, 5-(2-Methoxyphenyl)-4-(2-Methyl-2H-tetrazol-5-yl)thiophene-2-carboxylic acid] has an inhibition at 5000 µM greater than 80%. In the case of Cn1nnc(-c2cc(C(=O)O)sc2-c2ccc(-c3ccccc3)cc2)n1 [DNM-123G, 5-(4-biphenylyl)-4-(2-methyl-2H-tetrazol-5-yl)thiophene-2-carboxylic acid], the inhibition at 5000 µM was greater than 80%. Cn1nnc(-c2cc(C(=O)O)sc2-c2cccc3ccccc23)n1 [DNM-123H, 5-(Naphthalen-1-yl)-4-(2-methyl-2H-tetrazol-5-yl)thiophene-2-carboxylic acid] showed an inhibition at 5000 µM greater than 80%. With Cn1nnc(-c2cc(C(=O)O)sc2-c2ccccn2)n1 [DNM-123I, 5-(Pyridin-2-yl)-4-(2-methyl-2H-tetrazol-5-yl)thiophene-2-carboxylic acid] the inhibition at 5000 µM was greater than 70%. CCOC(=O)c1cc(-c2nnn[nH]2)c(-c2cccc(F)c2)s1 [DNM-124A, Ethyl 5-(3-fluorophenyl)-4-(1H-tetrazol-5-yl)thiophene-2-carboxylate] showed an inhibition at 5000 µM greater than 80%. For CCOC(=O)c1cc(-c2nnn[nH]2)c(-c2ccccn2)s1 [DNM-124I, Ethyl 5-(pyridin-2-yl)-4-(1H-tetrazol-5-yl)thiophene-2-carboxylate], the inhibition at 5000 µM was greater than 80%. For Oc1cccc(-c2cc(-c3nnn[nH]3)c(-c3cccc(O)c3)s2)c1 [DNM-131A, 5-(2,5-Bis(3-hydroxyphenyl)thiophen-3-yl)-1H-tetrazole], the inhibition at 5000 µM was greater than 80%. Oc1ccc(-c2cc(-c3nnn[nH]3)c(-c3ccc(O)cc3)s2)cc1 [DNM-131C, 5-(2,5-Bis(4-hydroxyphenyl)thiophen-3-yl)-1H-tetrazole] gave an inhibition at 5000 µM greater than 80%. O=C(O)c1ccc(-c2cc(-c3nnn[nH]3)c(-c3ccc(C(=O)O)cc3)s2)cc1 [DNM-131E, 5-(2,5-Bis(4-carboxyphenyl)thiophen-3-yl)-1H-tetrazole] gave an inhibition at 5000 µM greater than 80%. In the case of NC(=O)c1ccc(-c2cc(-c3nnn[nH]3)c(-c3ccc(C(N)=O)cc3)s2)cc1 [DNM-131F, 5-(2,5-Bis(4-carbamoylphenyl)thiophen-3-yl)-1H-tetrazole], the inhibition at 5000 µM was greater than 80%. With NC(=O)c1cccc(-c2cc(-c3nnn[nH]3)c(-c3cccc(C(N)=O)c3)s2)c1 [DNM-131H, 5-(2,5-Bis(3-carbamoylphenyl)thiophen-3-yl)-1H-tetrazole] the inhibition at 5000 µM was greater than 70%. With CCOC(=O)c1ccc(-c2cc(-c3nnn[nH]3)c(-c3ccc(C(=O)OCC)cc3)s2)cc1 [DNM-131J, 5-(2,5-Bis(4-(ethoxylcarbonyl)phenyl)thiophen-3-yl)-1H-tetrazole] the inhibition at 5000 µM was greater than 80%. COC(=O)c1ccccc1-c1cc(-c2nnn[nH]2)c(-c2ccccc2C(=O)OC)s1 [DNM-131K, 5-(2,5-Bis(2-(methoxylcarbonyl)phenyl)thiophen-3-yl)-1H-tetrazole] showed an inhibition at 5000 µM greater than 70%. With c1ccc(Cc2cc(-c3nnn[nH]3)c(Cc3ccccc3)s2)cc1 [DNM-131O, 5-(2,5-Dibenzylthiophen-3-yl)-1H-tetrazole] the inhibition at 5000 µM was greater than 80%. Cn1nnc(-c2cc(-c3cccc(O)c3)sc2-c2cccc(O)c2)n1 [DNM-132A, 5-(2,5-Bis(3-hydroxyphenyl)thiophen-3-yl)-2-methyl-2H-tetrazole] gave an inhibition at 5000 µM greater than 80%. Cn1nnc(-c2cc(-c3ccc(O)cc3)sc2-c2ccc(O)cc2)n1 [DNM-132C, 5-(2,5-Bis(4-hydroxyphenyl)thiophen-3-yl)-2-methyl-2H-tetrazole] was tested, and the inhibition at 5000 µM was greater than 80%. Cn1nnc(-c2cc(-c3cccc(C(=O)O)c3)sc2-c2cccc(C(=O)O)c2)n1 [DNM-132G, 5-(2,5-Bis(3-carboxyphenyl)thiophen-3-yl)-2-methyl-2H-tetrazole] showed an inhibition at 5000 µM greater than 80%. Work on Cn1nnnc1-c1cc(-c2cccc(O)c2)sc1-c1cccc(O)c1 [DNM-133A, 5-(2,5-Bis(3-hydroxyphenyl)thiophen-3-yl)-1-methyl-1H-tetrazole] yielded an inhibition at 5000 µM greater than 80%. Work on Cn1nnnc1-c1cc(-c2ccc(O)cc2)sc1-c1ccc(O)cc1 [DNM-133C, 5-(2,5-Bis(4-hydroxyphenyl)thiophen-3-yl)-1-methyl-1H-tetrazole] yielded an inhibition at 5000 µM greater than 80%. Compound Cn1nnnc1-c1cc(-c2ccc(C(=O)O)cc2)sc1-c1ccc(C(=O)O)cc1 [DNM-133E, 5-(2,5-Bis(4-carboxyphenyl)thiophen-3-yl)-1-methyl-1H-tetrazole] has an inhibition at 5000 µM greater than 70%.
